Measurements reported in ChEMBL document CHEMBL1144268, “Unified Markov thermodynamics based on stochastic forms to classify drugs considering molecular structure, partition system, and biological species: distribution of the antimicrobial G1 on rat tissues” (2005).

Experiments:
Type in all cases: functional
[1] = species: Rattus norvegicus; experiment: Partition coefficient in rat liver
[2] = species: Rattus norvegicus; experiment: Partition coefficient in rat lung
[3] = species: Rattus norvegicus; experiment: Plasma concentration measured in rat adipose tissue after treatment with the compound
[4] = species: Rattus norvegicus; experiment: Plasma concentration measured in rat lung after treatment with the compound
[5] = species: Rattus norvegicus; experiment: Plasma concentration measured in rat liver after treatment with the compound
[6] = species: Rattus norvegicus; experiment: Partition coefficient in rat adipose tissue
[7] = species: Rattus norvegicus; experiment: Partition coefficient in rat spleen
[8] = species: Rattus norvegicus; experiment: Plasma concentration measured in rat spleen after treatment with the compound
[9] = species: Rattus norvegicus; experiment: Plasma concentration measured in rat plasma after treatment with the compound

For `O=[N+]([O-])/C(Br)=C/C1CCC(Br)O1` (centres undefined), which PC [1] is on record?
Its PC is 4.75.

And the PC [2]?
The PC was 1.91.

And the C [3]?
The C was 28.19 mg/mL.

And the C [4]?
The C was 17.04 mg/mL.

What about the C [5] of the same compound?
Its C is 42.25 mg/mL.

What about the PC [6] of the same compound?
The PC was 3.17.

And the PC [7]?
Its PC is 1.29.

And the C [8]?
Its C is 11.47 mg/mL.

What about the C [9] of the same compound?
Its C is 8.9 mg/mL.
